These results are taken from PMC4900628, “Critical Evaluation of P2X7 Receptor Antagonists in Selected Seizure Models” (PLoS ONE, 2016).

The structures appear in SMILES notation.

Series [1] in a line: Plasma and brain concentration in mice (co-administration with AEDs). Conditions: PTZ-T. Type of series: in vivo. The protocol:
Blood was collected intracardially by heart […] pipettes supplemented with heparin-Na (ratiopharm, Ulm, Germany; 10μl of 5.000 I.U./ml) and separated by centrifuging (1500xg for 10 min) at 6-8°C. The plasma was stored at -20°C in plastic tubes. After blood sample collection, rats were decapitated and brains were quickly dissected. After removing the adherent blood by tissue paper and cutting off the cerebellum, the samples were fresh frozen using liquid nitrogen. Brain tissue was stored at -80°C and delivered to the different laboratories on dry ice. For mice (groups with n = 6), a similar procedure was used for the preparation of plasma and brain samples. In experiments in which AFC was co-administered with carbamazepine or ethosuximide, drug concentrations in plasma and brain were estimated to detect potential pharmacokinetic interactions. Samples from experiments with AFC were analysed at the Lead Discovery Center (Dortmund, Germany). Briefly, AFC, carbamazepine and ethosuximide were extracted from plasma and homogenized brain by protein precipitation using acetonitrile. Resulting filtrates were analysed by liquid chromatography tandem-mass spectrometry (LC-MS/MS) using a Prominence UFLC system (Shimadzu, Duisburg, Germany) coupled to a QTrap 5500 instrument (ABSciex, Darmstadt, Germany). The compounds were separated on a Zorbax Eclipse Plus C18 column (Agilent Technologies, Santa Clara, CA, USA) with an acetonitrile/water gradient containing 0.1% formic acid as solvent. Chromatographic conditions and mass spectrometer parameters were optimized for each analyte. Plasma and brain concentrations of the compounds were calculated by means of a standard curve. Data were analysed using SigmaPlot (vers. 12.0, Systat Software, Erkrath, Germany) and SPSS (IBM SPSS Statistics 20, […], Germany), respectively. Results are expressed as mean ± SEM. […] In the MES-T, the current intensity inducing tonic hindlimb extensions in 50% of the mice (CC50 values with confidence limits for 95% probability) and the statistical significance was calculated using Probit analysis (SPSS). […] In the PTZ-T, the number of animals in the group with clonic seizures and the latency time were analysed using Fisher's exact probability test and the Mann-Whitney rank sum test, respectively. For multiple comparisons of the latency time a one-way ANOVA with the Holm-Sidak post hoc test was used. The influence of AFC on the plasma and brain concentrations of the antiepileptic drugs was statistical compared using the same procedure. In the PTZ-kindling model, the mean seizure stage within a group was calculated in relation to the number of PTZ-injections. Statistical comparison between vehicle- and compound-treated groups in this model was performed with two-way repeated measures ANOVA, followed by the Holm-Sidak post hoc test. The mean number of PTZ-injections needed to produce the first generalized seizure (≥ stage 3 convulsions) in the vehicle- versus compound-treated groups was statistically compared using a Mann-Whitney rank sum test. In fully kindled rats, the calculated mean seizure stage within a group after vehicle- and compound-treatment were compared using a paired t-test. P < 0.05 was the accepted minimum level of significance.

Series [2] has as its target T1, P2X7R (Rattus norvegicus, UniProt Q64663).
T1 construct: from tissue; host or cells: rat (Wistar) brain, hippocampal slices
T1 sequence (Q64663 1-595): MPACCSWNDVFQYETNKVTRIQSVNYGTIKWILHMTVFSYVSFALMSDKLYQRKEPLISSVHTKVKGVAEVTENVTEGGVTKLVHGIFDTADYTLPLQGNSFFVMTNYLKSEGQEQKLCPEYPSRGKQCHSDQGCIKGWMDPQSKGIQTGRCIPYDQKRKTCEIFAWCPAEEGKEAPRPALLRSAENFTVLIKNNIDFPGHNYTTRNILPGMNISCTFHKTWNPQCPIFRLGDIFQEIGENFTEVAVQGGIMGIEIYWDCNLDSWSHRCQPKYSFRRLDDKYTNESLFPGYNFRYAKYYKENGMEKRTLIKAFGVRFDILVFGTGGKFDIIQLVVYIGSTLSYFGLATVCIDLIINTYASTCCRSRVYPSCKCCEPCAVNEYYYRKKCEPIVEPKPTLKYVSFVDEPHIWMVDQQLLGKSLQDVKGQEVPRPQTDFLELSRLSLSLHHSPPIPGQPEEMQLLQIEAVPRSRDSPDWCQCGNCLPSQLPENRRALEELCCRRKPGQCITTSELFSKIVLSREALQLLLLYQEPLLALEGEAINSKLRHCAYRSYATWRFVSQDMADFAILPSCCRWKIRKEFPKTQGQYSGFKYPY
In words: P2X7R brain occupancy, ex vivo receptor binding autoradiography. Type of series: in vivo. To be noted: sc, rats, 15 mg/kg s.c., hippocampal slices, [3H] JNJ-54232334 autoradiography. Here is the method: Plasma and brain samples from experiments with JNJ-47965567 were quantified at the Neuroscience Therapeutic Area, Janssen Research & Development (San Diego, CA, USA) using an API 4000 MS/MS system (Applied Biosystems, Concord, ON, Canada) interfaced with an Agilent 1100 Series HPLC (Agilent Technologies). To measure the percentage of P2X7R brain occupancy of JNJ-47965567, ex vivo receptor binding autography was performed as recently described. Briefly, 20 μm-thick hippocampal slices were prepared and P2X7R radioligand binding was determined at room temperature with 10 nM [^3H] JNJ-54232334 (Janssen) in 50 mM Tris-HCl incubation buffer containing 0.1% bovine serum albumin. The non-specific binding was measured using adjacent sections incubated in the additional presence of 100 μM A-740003 (Tocris Bioscience, Bristol UK). Sections were incubated for 1 min, washed in ice-cold incubation buffer (4 times, 5 min each), followed by two dips in deionized water and rapidly dry under a stream of cold air before acquisition. Quantitative analysis was performed using the Tracer ß-Imager with M3 Vision software (Biospace Lab, Paris, France). Ex vivo receptor labelling was expressed as the percentage of receptor labelling in corresponding brain areas of vehicle-treated control animals.

As for `CCC1(C)CC(=O)NC1=O` (stereo not shown) [Ethosuximide, ethosuximide], in series [1], the “blood concentrations of ethosuximide on co-application of AFC” value is reported as “did not significantly modulate”. In series [1] (ethosuximide 100 mg/kg i.p., n = 6), the “brain concentration of ethosuximide alone” value stood at 377.3 ± 14.3 µM. Further, the “brain concentration of ethosuximide with AFC 50 mg/kg i.p.” value in series [1] (ethosuximide 100 mg/kg i.p., n = 6, significantly increased) worked out at 453.9 ± 18.7 µM.

In series [2], `O=C(NCC1(N2CCN(c3ccccc3)CC2)CCOCC1)c1cccnc1Sc1ccccc1` [JNJ-47965567, N-[[4-(4-phenyl-piperazin-1-yl)tetrahydro-2H-pyran-4-yl]-methyl]-2-(phenyl-thio) nicotinamide] yielded a receptor occupancy at 15 mg/kg of 98 ± 2%.
